Test results reported in ChEMBL document CHEMBL5046301, “pH-Responsive Antimicrobial Peptide with Selective Killing Activity for Bacterial Abscess Therapy” (J Med Chem, 2022).
Calls of active or inactive are those of the source. The calls are words filed in the database; no cut-off is given here.

Experiments:
Salmonella typhimurium [1] = test: Antibacterial activity against Salmonella enterica subsp. enterica serovar Typhimurium C77-31 assessed as inhibition of bacterial growth at pH 7.4 incubated for 24 hrs by NCCLS protocol based method; assay type: functional
Salmonella typhimurium [2] = test: Antibacterial activity against Salmonella typhimurium ATCC 14028 assessed as inhibition of bacterial growth at pH 7.4 incubated for 24 hrs by NCCLS protocol based method; assay type: functional, Salmonella enterica subsp. enterica serovar Typhimurium; conditions: Salmonella enterica
Lipopolysaccharide (LPS) = test: Displacement of BODIPY-TR-cadaverin from Pseudomonas aeruginosa ATCC 27316 Lipopolysaccharide at 1 to 64 uM at pH 7.4 incubated for 1 hr by fluorescence based analysis relative to control; conditions: dose 1-64 µM
Pseudomonas aeruginosa [3] = test: Antibacterial activity against Pseudomonas aeruginosa ATCC 27853 assessed as inhibition of bacterial growth at pH 7.4 incubated for 24 hrs by NCCLS protocol based method; assay type: functional
[4] = system: Staphylococcus epidermidis; test: Antibacterial activity against Staphylococcus epidermidis ATCC 12228 assessed as inhibition of bacterial growth at pH 7.4 incubated for 24 hrs by NCCLS protocol based method; assay type: functional
Staphylococcus aureus = test: Antibacterial activity against Staphylococcus aureus ATCC 25923 assessed as inhibition of bacterial growth at pH 6.5 incubated for 24 hrs by NCCLS protocol based method; assay type: functional
Pseudomonas aeruginosa [5] = test: Antimicrobial activity against Pseudomonas aeruginosa ATCC 27853 assessed as reduction in bacterial growth at pH 6.5 in presence of KCl; assay type: functional, organism-based
Pseudomonas aeruginosa [6] = test: Antimicrobial activity against Pseudomonas aeruginosa ATCC 27853 assessed as reduction in bacterial growth at pH 6.5 in presence of NH4Cl; assay type: functional, organism-based
Mus musculus [7] = test: Antiinflammatory activity in ICR cutaneous abscess mouse model assessed as reduction in IL-1alpha expression in serum at 5 mg/kg,ip administered twice a day measured after 72 hrs by ELISA (reference value: 9.9 +/ 0.42 10^1pg/ml); assay type: functional
Pseudomonas aeruginosa [8] = test: Antipseudomonal activity against Pseudomonas aeruginosa ATCC 27853 infected in ICR cutaneous abscess mouse model assessed as fold reduction in colony forming unit at 5 mg/kg,ip administered twice a day measured after 72 hrs relative to control; assay type: functional
Mus musculus [9] = test: Antiinflammatory activity in ICR cutaneous abscess mouse model assessed as reduction in TNF-alpha expression in serum at 5 mg/kg,ip administered twice a day measured after 72 hrs by ELISA (reference value: 1.01 +/ 0.46 10^3 pg/ml); assay type: functional
[10] = Hemolytic activity in human RBC assessed as hemoglobin release at pH 7.4 incubated for 1 hr; assay type: toxicity, cell-based; conditions: erythrocyte, pH 7.4, 1 h
[11] = Cytotoxicity against mouse RAW264.7 cells assessed as inhibition of cell growth at pH 6.5 measured after 24 hrs by MTT assay; assay type: toxicity, cell-based
Pseudomonas aeruginosa [12] = test: Antimicrobial activity against Pseudomonas aeruginosa ATCC 27853 assessed as reduction in bacterial growth at pH 6.5 in presence of CaCl2; assay type: functional, organism-based
Pseudomonas aeruginosa [13] = test: Antipseudomonal activity against Pseudomonas aeruginosa ATCC 27853 infected in ICR cutaneous abscess mouse model assessed as fold reduction in lesion area at 5 mg/kg,ip administered twice a day measured after 72 hrs relative to control; assay type: functional

H-FLEHLIPHVIHGLVHAIHH-NH2
MIC (Salmonella typhimurium [1]): > 64 µM | MIC (Salmonella typhimurium [2]): > 64 µM | Activity (Lipopolysaccharide (LPS)): 22.9% | MIC (Pseudomonas aeruginosa [3]): > 64 µM | MIC [4]: > 64 µM | MIC (Staphylococcus aureus): > 64 µM | Activity (Pseudomonas aeruginosa [5]): inactive | Activity (Pseudomonas aeruginosa [6]): Active | Activity (Mus musculus [7]): 6.67 10^1pg/ml | fold change (FC) (Pseudomonas aeruginosa [8]): 10 | Activity (Mus musculus [9]): 8.14 10^2pg/ml | MHC10 [10]: > 128 µM | IC50 at 24 h [11]: > 128 µM | Activity (Pseudomonas aeruginosa [12]): Active | fold change (FC) (Pseudomonas aeruginosa [13]): 10
